The text below walks through data of patent US10076525B2, “Sex steroid precursors alone or in combination with selective estrogen receptor modulators for the prevention and treatment of dyspareunia in postmenopausal women” (ENDORECHERCHE, INC., priority 2004, dated 2018).

Each structure is given as a SMILES string.

Data set [1] is described as follows: Body weight after 14-day intravaginal DHEA suppository. It counts as in vivo, rat. The following applies: OVX rats, 14 days. The text has this: The animals were housed individually and were allowed free access to water and rodent food (Lab Diet 5002, Ralston Purina, St-Louis, Mo.).
The insertion into the vagina of one suppository began on day 5 of the study and was continued once daily until day 18 of the study, for a total of 14 days of treatment. The suppository was gently placed in the vaginal opening and then delicately pushed about 2-3 mm inside the vagina with the help of a small, smooth glass stick, disinfected in 70% alcohol and dried between each animal.

A short description of data set [2]: DHEA blood levels after topical DHEA (Example 1). The format is in vivo, rat. The following applies: DHEA 80 mg/kg topically on dorsal skin, rats. The text has this: Animals from the intact and OVX control groups received the vehicle alone.

For the compound `C[C@]12CC[C@H](O)CC1=CC[C@@H]1[C@@H]2CC[C@]2(C)C(=O)CC[C@@H]12` [DHEA, dehydroepiandrosterone], the “body weight compared with placebo group” value in data set [1] (DHEA 0.33 mg suppository intravaginal) and in data set [1] (DHEA 0.66 mg suppository intravaginal) was “slightly decreased” throughout. In addition, in data set [1] (DHEA 1 mg suppository intravaginal), the “decrease of body weight compared with placebo group” value is “more pronounced”. Moreover, in data set [2], the DHEA blood levels was in the range of 70 to 100 nmol/L.
